Experimental data published in patent US5798350A, “Dopamine receptor ligands” (Allelix Biopharmaceuticals, Inc., priority 1996, dated 1998).

Biological target: T1, human D4 receptor (D4.2 sub-type) (Homo sapiens, UniProt P21917, DEL265-296)
T1 construct: expressed in transfected cells; host or cells: HEK 298 (human embryonic kidney) cells, [sic]; homogenate of stably transfected cells
T1 sequence (P21917 with tags, fused parts or gaps DEL265-296): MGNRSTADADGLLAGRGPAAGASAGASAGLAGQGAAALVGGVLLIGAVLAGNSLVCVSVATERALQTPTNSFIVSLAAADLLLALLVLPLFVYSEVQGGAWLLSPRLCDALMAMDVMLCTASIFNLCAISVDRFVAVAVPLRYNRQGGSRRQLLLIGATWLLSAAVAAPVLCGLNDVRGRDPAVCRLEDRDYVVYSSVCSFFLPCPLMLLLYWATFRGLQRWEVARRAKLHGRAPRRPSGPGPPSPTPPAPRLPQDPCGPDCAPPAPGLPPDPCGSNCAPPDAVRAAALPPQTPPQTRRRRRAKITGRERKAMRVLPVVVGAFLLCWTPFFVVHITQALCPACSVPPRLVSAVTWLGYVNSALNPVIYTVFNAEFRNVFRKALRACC
Test: D4 receptor binding, displacement of 3H-spiperone
Conditions: for Ki: human D4 receptor, 3H-spiperone 0.25 nM
Experimental: The potency of the test compound to reduce ^3 H-spiperone binding directly correlated to its binding affinity for the receptor.
The cells were then centrifuged in a Sorval centrifuge for 10 minutes, 5000 rpm (GS3 rotor) and the pellets quickly frozen in liquid nitrogen and stored at -80° C. until used in binding assay. When used in the assay, cells were thawed on ice for 20 minutes and then 10 mL of incubation buffer (50 mM Tris, 1 mM EDTA, 4 mM MgCl2, 5 mM KCl, 1.5 mM CaCl2, 120 mM NaCl, pH7.4) was added. […] Concentration of receptor protein was determined using the Pierce BCA assay.
Total Spiperone Binding Assay
The tubes were vortexed and incubated at room temperature for 90 minutes. The binding reaction was stopped by filtering using a Brandell Cell Harvester. The samples were filtered under vacuum over glass fibre filters (Whatman GF/B) presoaked for 2 hours in 0.3% polyethyleneimine (PEI) in 50 mM Tris buffer (pH7.4). The filters were then washed 3 times with 5 mL ice cold 50 mM Tris buffer (pH7.4). Individual filter disks were put in scintillation vials (Biovials, Bechman). Ready Protein Plus liquid scintillant (5 mL, Beckman) was added and the vials counted by liquid scintillation spectrophotometry (Beckman LSC 6500) after equilibrating for three hours at room temperature to determine total binding (BT).
Non-Specific Binding Assay for D4
The tubes were vortexed and incubated at room temperature for 90 minutes at which time the binding reaction was stopped by filtering. The filters were washed and counted using the same procedure as in the total binding assay described above to give the non-specific binding value (NSB).
Displacement Binding Assay
The incubation was started by the addition to 12×75 mm polypropylene tubes 500 μl (50 μg protein) membrane homogenate to a solution of 400 μl incubation buffer, 100 μl (0.25 final conc.) ^3 H-spiperone (90Ci/mmol, Amersham, diluted in borosilicate glass vial to) and […] of test compound that was prepared from 1 mM stock dissolved in DMSO and stored at -20° C. in polypropylene cryogenic storage vials until dilution in incubation buffer in borosilicate glass vials. The tubes were vortexed and incubated at room temperature for 90 minutes at which time the binding reaction was stopped by filtering. The filters were washed and counted using the same procedure as in the total binding assay described above to give the displacement binding value (BD).
IC50 was determined from an inhibition response curve, logit-log plot of %B/BO vs concentration of test compound.
Ki was calculated by the Cheng and Prustoff transformation: […]
where [L] is the concentration of ^3 H-spiperone used in the assay and KD is the to dissociation constant of ^3 H-spiperone determined independently under the same binding conditions.

[1] = compared with corresponding 4-methyl piperazine compound

Row | Ki | D4 affinity (compared with clozapine) | Structure (SMILES) | D4 affinity and selectivity (compared with clozapine) | D4 affinity and selectivity (compared with clozapine and the corresponding 4-methyl compound) | D4 affinity and selectivity [1]
1 | 8.3 nM | – | Clc1ccc2c(c1)C=C(N1CCN(Cc3ccc4c(c3)OCO4)CC1)c1ccccc1S2 [2-chloro-10-(4-piperonyl-1-piperazinyl)dibenzo[b,f]thiepine] | – | – | –
2 | 23.5 nM | – | Clc1ccc2c(c1)Nc1ccccc1N=C2N1CCN(Cc2ccc3c(c2)OCO3)CC1 [3-chloro-11-(4-piperonyl-1-piperazinyl)-5H-dibenzo[b,e][1,4]diazepine] | – | – | –
3 | 4 nM | better D4 affinity than clozapine | Clc1ccc2c(c1)N=C(N1CCN(Cc3ccc4c(c3)OCO4)CC1)c1ccccc1O2 [8-chloro-11-(4-piperonyl)-1-piperazinyl)dibenz[b,f][1,4]oxazepine] | better D4 affinity and selectivity than clozapine | better than clozapine and the corresponding 4-methyl compound | better D4 affinity and selectivity than the corresponding 4-methyl piperazine compound
4 | 30 nM | – | c1ccc2c(c1)N=C(N1CCN(Cc3ccc4c(c3)OCO4)CC1)c1ccccc1O2 [11-(4-piperonyl)-1-piperazinyl)-dibenz[b,f][1,4]oxazepine] | – | – | better D4 affinity and selectivity than the corresponding 4-methyl piperazine compound
